Data published in PubChem BioAssay AID256 (DTP/NCI, 2004).
Inconclusive results and toxic doses are left out.

Tested on: CD2F1 mice, L1210 leukemia ip, survival T/C
Test: NCI In Vivo Anticancer Drug Screen. Data for tumor model L1210 Leukemia (intraperitoneal) in CD2F1 (CDF1) mice
Settings: endpoint: mean survival time, higher = longer survival
Outline: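 In this screen, transplantable tumors were grown in mice given either the compound or its vehicle. Results were expressed as the treated measurement relative to the control measurement.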

[1] = dose: 100.0 mg/kg/injection, schedule: Q01DX009 (ip), vehicle: saline with Tween-80
[2] = dose: 200.0 mg/kg/injection, schedule: Q01DX009 (ip), vehicle: saline with Tween-80
[3] = dose: 400.0 mg/kg/injection, schedule: Q01DX009 (ip), vehicle: saline with Tween-80
[4] = dose: 100.0 mg/kg/injection, schedule: Q04DX003 (ip), vehicle: saline with Tween-80
[5] = dose: 200.0 mg/kg/injection, schedule: Q04DX003 (ip), vehicle: saline with Tween-80
[6] = dose: 400.0 mg/kg/injection, schedule: Q04DX003 (ip), vehicle: saline with Tween-80

**Q.** With `Nc1ncnc2c1c1c(=S)[nH]c(=S)[nH]c1n2C1OC(CO)C(O)C1O` (stereo not drawn) as the compound, how does the T/C (dose: 12.5 mg/kg/injection, schedule: Q01DX005 (ip), vehicle: distilled water + Tween-80) read?
**A.** 104 % of control

**Q.** What about the T/C (dose: 25.0 mg/kg/injection, schedule: Q01DX005 (ip), vehicle: distilled water + Tween-80) of the same compound?
**A.** 105 % of control

**Q.** What about the T/C (dose: 50.0 mg/kg/injection, schedule: Q01DX005 (ip), vehicle: distilled water + Tween-80) of the same compound?
**A.** 107 % of control

**Q.** And the T/C (dose: 100.0 mg/kg/injection, schedule: Q01DX005 (ip), vehicle: distilled water + Tween-80)?
**A.** 104 % of control

**Q.** And the T/C (dose: 200.0 mg/kg/injection, schedule: Q01DX005 (ip), vehicle: distilled water + Tween-80)?
**A.** 102 % of control

**Q.** How did the T/C [1] turn out when `COc1ccc(CCNC(=O)CCN2C(=O)CCC2=O)cc1OC` was run?
**A.** 98 % of control

**Q.** What about the T/C (dose: 100.0 mg/kg/injection, schedule: Q04DX003 (ip), vehicle: saline sonified) of the same compound?
**A.** 101 % of control

**Q.** And the T/C [2]?
**A.** 96 % of control

**Q.** And the T/C (dose: 200.0 mg/kg/injection, schedule: Q04DX003 (ip), vehicle: saline sonified)?
**A.** 101 % of control

**Q.** And the T/C [3]?
**A.** 100 % of control

**Q.** What about the T/C (dose: 400.0 mg/kg/injection, schedule: Q04DX003 (ip), vehicle: saline sonified) of the same compound?
**A.** 98 % of control

**Q.** Which results are given for `CCOC(=O)C1=C(C)NC(C)=C(C(=O)OCC)C1c1cccc([N+](=O)[O-])c1`?
**A.** T/C (dose: 100.0 mg/kg/injection, schedule: Q01DX009 (ip), vehicle: Klucel (hydroxypropylcellulose) (HPC)): 105 % of control; T/C (dose: 200.0 mg/kg/injection, schedule: Q01DX009 (ip), vehicle: Klucel (hydroxypropylcellulose) (HPC)): 91 % of control

**Q.** Which T/C [4] does the source give for `O=Cc1cccc(O)c1O` here?
**A.** 96 % of control

**Q.** And the T/C [5]?
**A.** 102 % of control

**Q.** What about the T/C [6] of the same compound?
**A.** 103 % of control

**Q.** `CC(=O)OC1C2C=CC1C1CC21` (stereo not drawn) was tested. Which T/C (dose: 100.0 mg/kg/injection, schedule: Q01DX001 (ip), vehicle: saline) did it give?
**A.** 96 % of control

**Q.** What about the T/C (dose: 200.0 mg/kg/injection, schedule: Q01DX001 (ip), vehicle: saline) of the same compound?
**A.** 100 % of control

**Q.** What about the T/C (dose: 400.0 mg/kg/injection, schedule: Q01DX001 (ip), vehicle: saline) of the same compound?
**A.** 98 % of control

**Q.** `CCC(C)C1NC(=O)C(NC(=O)c2c3nc4c(C(=O)NC5C(=O)NC(C(C)CC)C(=O)N6CCCC6C(=O)N(C)CC(=O)N(C)C(C(C)C)C(=O)OC5C)cc([N+](=O)[O-])c(C)c4oc-3c(C)c(=O)c2N)C(C)OC(=O)C(C(C)C)N(C)C(=O)CN(C)C(=O)C2CCCN2C1=O` (stereo not drawn) was tested. Which T/C (dose: 0.05 mg/kg/injection, schedule: Q01DX009 (ip), vehicle: water) did it give?
**A.** 107 % of control

**Q.** And the T/C (dose: 0.1 mg/kg/injection, schedule: Q01DX009 (ip), vehicle: water)?
**A.** 116 % of control

**Q.** And the T/C (dose: 0.2 mg/kg/injection, schedule: Q01DX009 (ip), vehicle: water)?
**A.** 112 % of control

**Q.** What about the T/C (dose: 0.4 mg/kg/injection, schedule: Q01DX009 (ip), vehicle: water) of the same compound?
**A.** 94 % of control

**Q.** What does the source list for `CCCCOP(=O)(OCCCC)Oc1cccc2ccccc12`?
**A.** T/C (dose: 100.0 mg/kg/injection, schedule: Q04DX002 (ip), vehicle: saline with Tween-80): 91 % of control; T/C (dose: 200.0 mg/kg/injection, schedule: Q04DX002 (ip), vehicle: saline with Tween-80): 95 % of control; T/C (dose: 400.0 mg/kg/injection, schedule: Q04DX002 (ip), vehicle: saline with Tween-80): 106 % of control

**Q.** For `O=C1C(c2ccccc2)=C(c2ccccc2)C2=CC(c3ccccc3)=C(c3ccccc3)C(c3ccccc3)C12Br` (stereo not drawn), which T/C [4] is on record?
**A.** 90 % of control

**Q.** What about the T/C [5] of the same compound?
**A.** 90 % of control

**Q.** And the T/C [6]?
**A.** 89 % of control

**Q.** For `O=C(O)C(O)C(O)C(=O)O.[NH-]C1CCCCC1[NH-].[Pt+2]` (stereo not drawn), which T/C (dose: 1.56 mg/kg/injection, schedule: Q04DX003 (ip), vehicle: water) is on record?
**A.** 115 % of control

**Q.** And the T/C (dose: 12.5 mg/kg/injection, schedule: Q04DX003 (ip), vehicle: water)?
**A.** 367 % of control

**Q.** And the T/C (dose: 25.0 mg/kg/injection, schedule: Q04DX003 (ip), vehicle: water)?
**A.** 266 % of control

**Q.** What about the T/C (dose: 50.0 mg/kg/injection, schedule: Q04DX003 (ip), vehicle: water) of the same compound?
**A.** 201 % of control

**Q.** For `O=C(Oc1cccc(O)c1)c1ccccc1`, which T/C [1] is on record?
**A.** 104 % of control

**Q.** What about the T/C [4] of the same compound?
**A.** 89 % of control

**Q.** What about the T/C [2] of the same compound?
**A.** 100 % of control

**Q.** And the T/C [5]?
**A.** 92 % of control

**Q.** And the T/C [3]?
**A.** 96 % of control

**Q.** What about the T/C [6] of the same compound?
**A.** 101 % of control

**Q.** For `N[C@@H]1CCCC[C@H]1N.O=C([O-])C(=O)[O-].[Pt+4]`, which T/C (dose: 0.78 mg/kg/injection, schedule: Q04DX003 (ip), vehicle: saline) is on record?
**A.** 120 % of control

**Q.** Which T/C (dose: 12.0 mg/kg/injection, schedule: Q04DX003 (ip), vehicle: other) does the source give for `CCCCNC(C)(C)C(S)c1ccc(Cl)cc1` (stereo not drawn) here?
**A.** 96 % of control

**Q.** And the T/C (dose: 25.0 mg/kg/injection, schedule: Q04DX003 (ip), vehicle: other)?
**A.** 105 % of control

**Q.** What about the T/C (dose: 50.0 mg/kg/injection, schedule: Q04DX003 (ip), vehicle: other) of the same compound?
**A.** 94 % of control
